# In US20190375708A1 (VenatoRx Pharmaceuticals, Inc., priority 2018, published 2019):
# How the values were obtained:
# [1] = test system: HBV replication in HepAD38 cells; assay: Anti-HBV replication assay in HepAD38 cells (QPCR of extracellular HBV DNA); assay type: cell-based, HBV (genotype D, serotype ayw); conditions: Hepatitis B virus, 168 h, 7 days incubation, extracellular HBV DNA by QPCR, read-out: Anti-HBV EC50
# How it was run: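 HepAD38 cells (HepG2 carrying a tet-repressible HBV genotype D genome) were seeded in tetracycline-free medium and treated next day with compound […] for 7 days. Supernatant HBV DNA was measured by QPCR against a standard curve; EC50 came from 4-parameter fits of inhibition versus DMSO control.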
# [2] = In vitro cytotoxicity assay (MTT cell viability) in HepG2 cells; assay type: cell-based, human; conditions: human
# How it was run: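 CC50 values reflect loss of HepG2 viability after a 7-day exposure at 37 °C, 5% CO2. After 3-4 h with MTT, solubilized formazan was quantified at 492 nm relative to vehicle wells.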
SMILES,EC50 [1],CC50 at 7 days [2]
"Cc1c(C(=O)Nc2ccc(F)c(F)c2)c2n(c1C(=O)C(=O)N[C@H]1CCC[C@H]1O)CCCC2 [Example 458, N-(3,4-difluorophenyl)-3-(2-(((1S,2R)-2-hydroxycyclopentyl)amino)-2-oxoacetyl)-2-methyl-5,6,7,8-tetrahydroindolizine-1-carboxamide]",500 to 1000 nM,5000 to 30000 nM
"Cc1c(C(=O)Nc2ccnc(Cl)c2)c(C)n(C)c1C(=O)C(=O)N[C@H](C)C(F)(F)F [Example 208, (R)-N-(2-chloropyridin-4-yl)-1,2,4-trimethyl-5-(2-oxo-2-((1,1,1-trifluoropropan-2-yl)amino)acetyl)-1H-pyrrole-3-carboxamide]",< 50 nM,> 30000 nM
"Cc1cc(NC(=O)c2c(C)c(C(=O)C(=O)N[C@@H]3CC[C@@H](O)C3)n(C)c2C)cnc1F [Example 176, N-(6-fluoro-5-methylpyridin-3-yl)-5-(2-(((1R,3R)-3-hydroxycyclopentyl)amino)-2-oxoacetyl)-1,2,4-trimethyl-1H-pyrrole-3-carboxamide]",50 to 499 nM,> 30000 nM
"O=C(N[C@H]1C[C@H](O)C1)C(=O)c1c(Cl)c(C(=O)Nc2ccc(F)c(Cl)c2)c2n1CCC2 [Example 555, 6-chloro-N-(3-chloro-4-fluorophenyl)-5-(2-(((1r,3r)-3-hydroxycyclobutyl)amino)-2-oxoacetyl)-2,3-dihydro-1H-pyrrolizine-7-carboxamide]",50 to 499 nM,5000 to 30000 nM
"O=C(NC1(CO)CCC1)C(=O)c1c(Cl)c(C(=O)Nc2ccc(F)c(Cl)c2)c2n1CCC2 [Example 565, 6-chloro-N-(3-chloro-4-fluorophenyl)-5-(2-((1-(hydroxymethyl)cyclobutyl)amino)-2-oxoacetyl)-2,3-dihydro-1H-pyrrolizine-7-carboxamide]",< 50 nM,5000 to 30000 nM
"Cc1noc(C2(NC(=O)C(=O)c3cc(C(=O)Nc4ccc(F)c(C)c4)c4n3CCCC4)CC2)n1 [Example 418, N-(4-fluoro-3-methylphenyl)-3-(2-((1-(3-methyl-1,2,4-oxadiazol-5-yl)cyclopropyl)amino)-2-oxoacetyl)-5,6,7,8-tetrahydroidolizine-1-carboxamide]",50 to 499 nM,> 30000 nM
"Cc1c(C(=O)Nc2ccnc(Cl)c2)c(C)n(C)c1C(=O)C(=O)NC1(C(F)(F)F)CCOCC1 [Example 253, N-(2-chloropyridin-4-yl)-1,2,4-trimethyl-5-(2-oxo-2-((4-(trifluoromethyl)tetrahydro-2H-pyran-4-yl)amino)acetyl)-1H-pyrrole-3-carboxamide]",< 50 nM,> 30000 nM
"Cc1cc(NC(=O)c2c(C)c(C(=O)C(=O)NC(C)(C)CO)n(C)c2Cl)ccc1F [Example 391, 2-chloro-N-(44-fluoro-3-methylphenyl)-5-(2-((1-hydroxy-2-methylpropan-2-yl)amino)-2-oxoacetyl)-1 4-dimethyl-1H-pyrrole-3-carboxamide]",> 1000 nM,> 30000 nM
"Cc1cc(NC(=O)c2c(C)c(C(=O)C(=O)N[C@H](C)CCO)n(C)c2C)ccc1F [Example 141, (R)-N-(4-fluoro-3-methylphenyl)-5-(2-((4-hydroxybutan-2-yl)amino)-2-oxoacetyl)-1,2,4-trimethyl-1H-pyrrole-3-carboxamide]",< 50 nM,> 30000 nM
Cc1c(C(=O)Nc2ccc(F)nc2)c(C)n(C)c1C(=O)C(=O)N[C@H]1CC[C@](O)(C(F)(F)F)CC1 [Example 239],500 to 1000 nM,> 30000 nM
"Cc1noc([C@H](C)NC(=O)C(=O)c2c(C)c(C(=O)Nc3cnc(F)c(C)c3)c3n2CCCC3)n1 [Example 471, (S)-N-(6-fluoro-5-methylpyridin-3-yl)-2-methyl-3-(2-((1-(3-methyl-1,2,4-oxadiazol-5-yl)ethyl)amino)-2-oxoacetyl)-5,6,7,8-tetrahydroindolizine-1-carboxamide]",500 to 1000 nM,> 30000 nM
"Cc1cc(NC(=O)c2c(Cl)c(C(=O)C(=O)NC(C)(C)CO)n3c2CCCC3)ccc1F [Example 490, 2-chloro-N-(4-fluoro-3-methylphenyl)-3-(2-((1-hydroxy-2-methylpropan-2-yl)amino)-2-oxoacetyl)-5,6,7,8-tetrahydroindolizine-1-carboxamide]",< 50 nM,> 30000 nM
"CO[C@H]1CC[C@H](NC(=O)C(=O)c2c(C)c(C(=O)Nc3ccc(F)c(C)c3)c(C)n2C)CC1 [Example 269, N-(4-fluoro-3-methylphenyl)-5-(2-(((1r,4r)-4-methoxycyclohexyl)amino)-2-oxoacetyl)-1,2,4-trimethyl-1H-pyrrole-3-carboxamide]",< 50 nM,5000 to 30000 nM
"Cc1cc(NC(=O)c2c(C)c(C(=O)C(=O)N[C@H](CO)C(C)(C)C)n(C)c2C)ccc1F [Example 67, (S)—N-(4-fluoro-3-methylphenyl)-5-(2-((1-hydroxy-3,3-dimethylbutan-2-yl)amino)-2-oxoacetyl)-1,2,4-trimethyl-1H-pyrrole-3-carboxamide]",< 50 nM,> 30000 nM
"Cc1cc(NC(=O)c2c(Cl)c(C(=O)C(=O)NCc3cnc(N)s3)n3c2CCCC3)ccc1F [Example 503, 3-(2-(((2-aminothiazol-5-yl)methyl)amino)-2-oxoacetyl)-2-chloro-N-(4-fluoro-3-methylphenyl)-5,6,7,8-tetrahydroindolizine-1-carboxamide]",< 50 nM,> 30000 nM
"Cc1c(C(=O)Nc2cccc(Cl)c2)c(C)n(C)c1C(=O)C(=O)N[C@]1(C)CC[C@@H](O)CC1 [Example 615, N-(3-chlorophenyl)-5-(2-(((1r,4r)-4-hydroxy-1-methylcyclohexyl)amino)-2-oxoacetyl)-1,2,4-trimethyl-1H-pyrrole-3-carboxamide]",< 50 nM,> 30000 nM
"Cc1c(C(=O)Nc2ccc(F)c(F)c2)c(C)n(C)c1C(=O)C(=O)N[C@]1(C)CC[C@@H](O)CC1 [Example 706, N-(3,4-difluorophenyl)-5-(2-(((1r,4r)-4-hydroxy-1-methylcyclohexxyl)amino)-2-oxoacetyl)-1,2,4-trimethyl-1H-pyrrole-3-carboxmaide]",< 50 nM,> 30000 nM
"Cc1cc(NC(=O)c2c(C)c(C(=O)C(=O)NC3COCCOC3)n(C)c2C)ccc1F [Example 714, 5-(2-((1,4-dioxepan-6-yl)amino)-2-oxoacetyl)-N-(4-fluoro-3-methylphenyl)-1,2,4-trimethyl-1H-pyrrole-3-carboxamide]",< 50 nM,> 30000 nM
"Cc1cc(NC(=O)c2c(C)c(C(=O)C(=O)N[C@H]3c4ccccc4C[C@H]3O)n(C)c2C)ccc1F [Example 260, N-(4-fluoro-3-methylphenyl)-5-(2-(((1S,2R)-2-hydroxy-2,3-dihydro-1H-inden-1-yl)amino)-2-oxoacetyl)-1,2,4-trimethyl-1H-pyrrole-3-carboxamide]",< 50 nM,5000 to 30000 nM
"Cc1cc(NC(=O)c2c(C)c(C(=O)C(=O)NC(C)(C)C(N)=O)n(CCF)c2C)ccc1F [Example 117, 5-(2-((1-amino-2-methyl-1-oxopropan-2-yl)amino)-2-oxoacetyl)-N-(4-fluoro-3-methylphenyl)-1-(2-fluoroethyl)-2,4-dimethyl-1H-pyrrole-3-carboxamide]",50 to 499 nM,> 30000 nM
